Like-named read-outs stand apart in the source and are kept apart here.
What was measured:
[1] = target: T1, SHP2 (Homo sapiens (Human), UniProt Q06124); experiment: SHP2 allosteric inhibitory enzyme activity assay (DiFMUP fluorescence); assay type: biochemical; settings: read-out: SHP2 enzymatic activity IC50
In short: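 Human SHP2 (0.2 ng) preincubated 1 h at room temperature with 25 µM activating peptide IRS1_pY1172(dPEG8)pY1222 and compound (10-point series from 10 µM) in HEPES/NaCl/KCl/BRIJ-35/EDTA/DTT buffer. DiFMUP then added for 1 h; fluorescence at ex 340/em 450 nm, normalized to no-enzyme and no-inhibitor controls, IC50 from variable-slope fit.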

[2] = target: T2, hERG potassium channel (Homo sapiens (Human), UniProt Q12809); experiment: Patch clamp experiments on the hERG ion channel (HEK293 cells overexpressing hERG)
Protocol: (§10) Example C Patch Clamp Experiments to Assess the Effects of Compounds on the hERG Ion Channel
(§11) Dilute the test sample diluent in sequence with extracellular fluid to prepare detection solutions with final concentrations of 0.3 µM, 1 µM, 3 µM, 10 µM and 30 µM. The solubility of the samples to be tested was visually checked.
(§12) The cell line was derived from HEK293 cells and cultured in a 37° C., 5% CO2 incubator. In order to prevent cell senescence caused by contact inhibition, when the cell culture confluence should not exceed 80%, the cells should be passaged every ¾ days, and the inoculation density of each T175 flask should be 2*106 cells. Pre-wash with Phosphate Buffered Saline (PBS), then trypsin/EDTA for 2-3 minutes, stop digestion by adding cell culture medium, and transfer to a new culture bottle.
(§13) HEK293 cells overexpressing the hERG potassium channel were cultured overnight at a cell density below 50%. Experimental cells were transferred to a cell bath embedded in an inverted microscope stage(Diaphot, Nikon) and perfused with extracellular fluid. The extracellular fluid contained 130 mM NaCl, 4 mM KCl, 1.8 mM CaCl2, 1 mM MgCl2, 10 mM glucose and 10 mM HEPES (pH 7.4 with NaOH) at a perfusion rate of 4 ml/min. The inner tube contains 130 mM KCl, 1 mM MgCl2, 5 mM EGTA, 5 mM MgATP and 10 mM HEPES (pH 7.2 with KOH). Membrane currents were recorded using a HEKA EPC-10 patch-clamp amplifier and [sequence] acquisition system (HEKA Instruments Inc., D-67466 Lambrecht, Pfalz, Germany). All experiments were done at room temperature (22-23° C.).
(§14) Electrodes (BF150-86-10) were straightened during the experiments using a P-97 microelectrode puller (Sutter Instrument Company, One Digital Drive, Novato, CA 94949). The inner diameter of the electrode is 1-1.5 mm, and the water entry resistance after filling with internal liquid is 2-4 MΩ.
(§15) When the whole-cell seal is formed, wait for the current to stabilize for 2 minutes (the current decay is less than 5% within 5 minutes, and the tail current value is greater than500 pA). At this time, the peak value of the tail current is the control current value. The extracellular fluid containing the drug to be tested is then perfused. The same procedure was repeated 3-5 times, exposing each cell to 4-6 increasing concentrations of compounds. Blocking and deactivation of hERG during compound exposure and washout were continuously recorded.
(§16) When the whole-cell seal was formed, the cell membrane voltage was clamped at -80 mV, depolarized for 2 seconds every 12 seconds, and the clamping voltage was depolarized from -80 mV to -50 mV under a 5-second repolarization pulse of -50 mV. Measure the peak tail current.
(§17) Peak hERG tail currents were measured under a 5 s repolarization pulse of -50 mV. Each drug concentration was plotted against the current inhibition rate as a function of the logarithm of the compound concentration. The following Hill equation was used to fit a concentration-response curve to fit IC50.
(§18) Y: test value; Bottom: the lowest test value (0); Top: the highest test value (1); Hillcoefficient: the maximum absolute value of the slope of the curve.
(§19) Data are presented as mean ± standard deviation.

[3] = In vitro metabolic stability in liver microsomes, rat; assay type: in vitro ADME; settings: for microsomal CLint at 2 µM: pH 7.3, read-out: CLint (µL/min/mg protein) rat
Protocol: (§1) Example D: In Vitro Metabolic Stability of Human and Rat Liver Microsomes Test Buffer Preparation
(§2) Dissolve 1900 mg of MgCl2 in 400 mL of ultrapure water.
(§3) Dissolve 17.42 g K2HPO4 and 13.65 g KH2PO4 into 1000 mL of ultrapure water, respectively. Mix a certain proportion of K2HPO4 and KH2PO4 to adjust the pH to 7.30 ± 0.10.
(§4) Prepare a solution of 10 ng/mL labetalol and 10 ng/mL glyburide in acetonitrile and store at 4° C.
(§5) Prepare 10 mM verapamil (positive control) and test article stock solutions in DMSO. Then, with MeOH/ACN/H2O solution (1:1:2 by volume), diluted to 50 µM and 200 µM working solutions, respectively.
(§6) experiment procedure: • 1) Add 40 µL MgCl2 and 306 µL PBS to 96 wells (set blank control group, positive control group, test compound sample group, and negative control group at the same time) • 2) Add 4 µL of compound working solution to each well (4 µL of PBS buffer for blank group) (Note: the final concentration of DMSO volume in the system is ≤ 0.5%) • 3) Add 10 µL of liver microsomes (concentration: 20 mg/mL) to each well, mix well, and pre-incubate at 37° C. for 10 minutes. • 4) Add 40 µL of 10 mM NADPH working solution to each well to start the reaction (add equal volume of PBS buffer for blank control group and negative control group respectively), the total reaction volume is 400 µL. • 5) Take out 50 µL samples from the above reaction solution at 0, 5, 15, and 45 minutes, and add 400 µL of reaction stop solution to stop the reaction • 6) Shake the sample after the termination of the reaction on a shaker for 5 minutes. • 7) Centrifuge the sample at 3200 rcf for 10 minutes. After the centrifugation is complete, transfer 50 µL of the supernatant to 200 µL of H2O for dilution for LC-MS/MS analysis.
(§7) Calculations of t½ and CLint are performed using the first-order kinetic equations: […]
(§8) where k represents the elimination constant, calculated from a log-linear plot of percentage remaining versus time. t½ represents half-life. Cprotein is the concentration of liver microsomes.

[4] = In vitro metabolic stability in liver microsomes, human; assay type: in vitro ADME; settings: for microsomal CLint at 2 µM: pH 7.3, read-out: CLint (µL/min/mg protein) human
Protocol: as §1, §2, §3, §4, §5, §6, §7, §8

[5] = In vitro metabolic stability in liver microsomes, monkey; assay type: in vitro ADME; settings: for microsomal CLint at 2 µM: pH 7.3, read-out: CLint (µL/min/mg protein) monkey
[6] = In vitro metabolic stability in liver microsomes, mouse; assay type: in vitro ADME; settings: for microsomal CLint at 2 µM: pH 7.3, read-out: CLint (µL/min/mg protein) mouse
[7] = In vitro metabolic stability in liver microsomes, dog; assay type: in vitro ADME; settings: for microsomal CLint at 2 µM: pH 7.3
[8] = tested on: leukemia cells MV-4-11; experiment: Cell proliferation assay, CELL TITER-GLO (CTG) luminescence, MV-4-11; assay type: cell-based
In short: (§9)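 NCI-H358 (2000 cells/well, ultra-low-attachment plates) and MV-4-11 cells were dosed 24 h after seeding at 1000 nM down to 0.1524 nM (3-fold steps). Viable-cell ATP was read by CellTiter-Glo luminescence after 96 h for NCI-H358 and 120 h for MV-4-11. IC50 came from a variable-slope fit of inhibition versus the 0 nM control.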

[9] = tested on: lung cancer cells NCI-H358; experiment: Cell proliferation assay, CELL TITER-GLO (CTG) luminescence, NCI-H358; assay type: cell-based; settings: cultured for 96 hrs
In short: as §9

[10] = target: T2, hERG potassium channel
Protocol: as §10, §11, §12, §13, §14, §15, §16, §17, §18, §19

[11] = target: T1, SHP2; settings: according to WO2019183367, cited from earlier work
[12] = read-out: hERG, patch clamp, peak tail current, HEK293
[13] = Homo sapiens, MV4-11, cultured for 120 hrs
[14] = Homo sapiens, NCI-H358, ultra-low adsorption plate

T1 sequence (Q06124 whole entry): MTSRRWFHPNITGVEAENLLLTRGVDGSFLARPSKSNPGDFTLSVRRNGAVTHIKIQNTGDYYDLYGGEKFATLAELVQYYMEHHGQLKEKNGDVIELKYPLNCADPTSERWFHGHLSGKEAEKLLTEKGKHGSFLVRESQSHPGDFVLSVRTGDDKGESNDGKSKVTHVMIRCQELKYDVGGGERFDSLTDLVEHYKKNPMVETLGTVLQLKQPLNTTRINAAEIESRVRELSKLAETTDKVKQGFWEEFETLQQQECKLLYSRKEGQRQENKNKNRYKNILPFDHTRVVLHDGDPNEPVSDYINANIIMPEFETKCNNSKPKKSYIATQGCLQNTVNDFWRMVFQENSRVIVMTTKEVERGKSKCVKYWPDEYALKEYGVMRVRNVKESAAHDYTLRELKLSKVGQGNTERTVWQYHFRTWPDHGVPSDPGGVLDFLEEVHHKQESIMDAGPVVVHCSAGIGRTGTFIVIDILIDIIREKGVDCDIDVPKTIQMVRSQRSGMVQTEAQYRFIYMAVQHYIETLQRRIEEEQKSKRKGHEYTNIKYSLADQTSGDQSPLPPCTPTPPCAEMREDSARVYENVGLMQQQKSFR
T2 sequence (Q12809 whole entry): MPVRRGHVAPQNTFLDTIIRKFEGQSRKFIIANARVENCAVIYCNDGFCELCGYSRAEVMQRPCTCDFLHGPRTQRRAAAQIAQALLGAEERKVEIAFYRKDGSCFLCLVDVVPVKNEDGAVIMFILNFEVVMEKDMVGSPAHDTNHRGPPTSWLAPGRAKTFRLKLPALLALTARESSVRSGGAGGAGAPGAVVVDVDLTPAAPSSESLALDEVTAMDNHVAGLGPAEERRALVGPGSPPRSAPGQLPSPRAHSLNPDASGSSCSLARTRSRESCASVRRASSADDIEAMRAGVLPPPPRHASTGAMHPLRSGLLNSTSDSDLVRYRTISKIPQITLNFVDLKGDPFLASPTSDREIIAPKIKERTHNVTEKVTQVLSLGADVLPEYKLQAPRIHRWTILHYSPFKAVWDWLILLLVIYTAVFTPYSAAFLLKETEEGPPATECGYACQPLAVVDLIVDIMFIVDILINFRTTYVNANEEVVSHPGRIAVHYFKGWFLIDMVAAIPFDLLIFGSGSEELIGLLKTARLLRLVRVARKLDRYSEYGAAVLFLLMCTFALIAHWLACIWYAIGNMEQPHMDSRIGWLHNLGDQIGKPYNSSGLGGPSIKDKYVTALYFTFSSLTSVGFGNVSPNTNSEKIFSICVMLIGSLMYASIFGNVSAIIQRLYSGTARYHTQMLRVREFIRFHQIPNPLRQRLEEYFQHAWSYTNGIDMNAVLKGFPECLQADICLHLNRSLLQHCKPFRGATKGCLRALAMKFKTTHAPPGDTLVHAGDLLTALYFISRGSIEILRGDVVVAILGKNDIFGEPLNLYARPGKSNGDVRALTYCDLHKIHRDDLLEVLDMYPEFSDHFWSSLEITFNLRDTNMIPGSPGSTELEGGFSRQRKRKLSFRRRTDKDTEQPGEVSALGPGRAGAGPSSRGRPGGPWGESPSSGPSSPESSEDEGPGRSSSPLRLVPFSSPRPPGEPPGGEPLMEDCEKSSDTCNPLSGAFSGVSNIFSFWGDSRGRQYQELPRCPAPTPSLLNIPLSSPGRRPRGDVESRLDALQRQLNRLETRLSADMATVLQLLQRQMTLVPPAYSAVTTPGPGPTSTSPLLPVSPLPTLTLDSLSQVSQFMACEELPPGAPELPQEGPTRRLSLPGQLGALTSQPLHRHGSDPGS

| Structure (SMILES) | IC50 [1] | IC50 [2] | IC50 ([8]; cultured for 120 hrs) | IC50 ([9]; ultra-low adsorption plate) | IC50 [2, 12] | microsomal CLint at 2 µM [3] | microsomal CLint at 2 µM [4] | microsomal CLint at 2 µM [5] | microsomal CLint at 2 µM [6] | microsomal CLint at 2 µM ([7]; dog, microsomes) | IC50 [8, 13] | IC50 [9, 14] | further results |
| --- | --- | --- | --- | --- | --- | --- | --- | --- | --- | --- | --- | --- | --- |
| N[C@@H]1c2ccccc2CC12CCN(c1ncc(C#CCOc3ccncc3)nc1CO)CC2 [Compound A18, (S) - (3-(1-amino-1,3-dihydrospiro [indene-2,4′-piperidine]-1′-yl)-6-(3-(pyridin-4-oxy)prop-1-yn-1-yl)pyrazin-2-yl) methanol] | 35 nM | > 20000 nM | – | – | – | – | – | – | – | – | – | – | – |
| N[C@@H]1c2ccccc2CC12CCN(c1ncc(C#CCOc3ccc(S(N)(=O)=O)cc3)nc1CO)CC2 [Compound A32, (S)-4-((3-(5-(1-amino-1,3-dihydrospiro[indene-2,4′-piperidin]-1′-yl)-6-(hydroxymethy 1)pyrazin-2-yl)prop-2-yn-1-yl)oxy)benzenesulfonamide] | 1.3 nM | – | 3.4 nM | 9 nM | > 20000 nM | – | – | – | – | – | – | – | CLint (µL/min/mg protein) rat [3]: 14.7 µL/min/mg protein; CLint (µL/min/mg protein) human [4]: 2.2 µL/min/mg protein; CLint (µL/min/mg protein) monkey [5]: 10.1 µL/min/mg protein; CLint (µL/min/mg protein) mouse [6]: 10.6 µL/min/mg protein; CLint (µL/min/mg protein) dog ([7]; dog liver microsomes): 1.9 µL/min/mg protein |
| CC(=O)Nc1cccc(OCC#Cc2cnc(N3CCC4(CC3)Cc3ccccc3[C@H]4N)c(C(N)=O)n2)c1 [Compound A41] | 14 nM | – | – | – | > 20000 nM | – | – | – | – | – | – | – | – |
| NC(=O)c1ccc(NCC#Cc2cnc(N3CCC4(CC3)Cc3ccccc3[C@H]4N)c(CO)n2)cc1 [Compound A48, (S)-4-((3-(5-(1-amino-1,3-dihydrospiro[indene-2,4′-piperidin]-1′-yl)-6-(hydroxymethy 1)pyrazin-2-yl)prop-2-yn-1-yl)amino)benzamide] | 2 nM | – | 1.7 nM | 12 nM | – | – | – | – | – | – | – | – | CLint (µL/min/mg protein) rat [3]: 15.8 µL/min/mg protein; CLint (µL/min/mg protein) human [4]: 7.3 µL/min/mg protein; CLint (µL/min/mg protein) monkey [5]: 8.6 µL/min/mg protein; CLint (µL/min/mg protein) mouse [6]: 15.2 µL/min/mg protein; CLint (µL/min/mg protein) dog ([7]; dog, microsomes): 26.3 µL/min/mg protein; IC50 [10]: > 20000 nM |
| CP(C)(=O)c1ccc(OCC#Cc2cnc(N3CCC4(CC3)Cc3ccccc3[C@H]4N)c(CO)n2)cc1 [Compound A57] | 4.3 nM | – | 10 nM | 22 nM | > 20000 nM | – | – | – | – | – | – | – | – |
| NC(=O)Cc1cccc(OCC#Cc2cnc(N3CCC4(CC3)Cc3ccccc3[C@H]4N)c(CO)n2)c1 [Compound A59, (S)-2-(3-((3-(5-(1-amino-1,3-dihydrospiro[indene-2,4′-piperidin]-1′-yl)-6-(hydroxymethyl)pyrazin-2-yl)prop-2-yn-1-yl)oxy)phenyl)acetamide] | 1.1 nM | 26000 nM | – | – | – | 16.2 µL/min/mg | 10.7 µL/min/mg | 15.9 µL/min/mg | 16.8 µL/min/mg | 14.9 µL/min/mg | 1 nM | 5.8 nM | – |
| Cn1nccc1NCC#Cc1cnc(N2CCC3(CC2)Cc2ccccc2[C@H]3N)c(CO)n1 [Compound A61, (S)-(3-(1-amino-1,3-dihydrospiro[indene-2,4′-piperidin]-1′-yl)-6-(3-((1-methyl-1H-pyrazol-5-yl)amino)prop-1-yn-1-yl)pyrazin-2-yl)methanol] | 1.8 nM | – | – | – | – | 15.9 µL/min/mg | 13 µL/min/mg | 6.1 µL/min/mg | 14.1 µL/min/mg | 14.5 µL/min/mg | 5.1 nM | 9.4 nM | – |
| NC(=O)c1ccc(OCC#Cc2cnc(N3CCC4(CC3)Cc3ccccc3[C@H]4N)cn2)cc1Cl [Compound A62, (S)-4-((3-(5-(1-amino-1,3-dihydrospiro[inden-2,4′-piperidin]-1′-yl)pyrazin-2-yl)prop-2-yn-1-yl)oxy)-2-chlorobenzamide] | 1.5 nM | – | – | – | – | 8.1 µL/min/mg | 2.6 µL/min/mg | 19.2 µL/min/mg | 9.7 µL/min/mg | 2.9 µL/min/mg | 14 nM | 56 nM | – |
| NC(=O)Cc1ccc(OCC#Cc2cnc(N3CCC4(CC3)Cc3ccccc3[C@H]4N)c(CO)n2)cc1 [Compound A71, (S)-2-(4-((3-(5-(1-amino-1,3-dihydrospiro[indene-2,4′-piperidin]-1′-yl)-6-(hydroxylmethyl)pyrazin-2-yl)prop-2-yn-1-yl)oxy)phenyl)ace tamide] | 2.9 nM | > 20000 nM | – | – | – | – | – | – | – | – | 2.3 nM | 4.3 nM | – |
| N[C@@H]1c2ccccc2CC12CCN(c1ncc(Sc3ccnc(Cl)c3Cl)nc1CO)CC2 [compound 243] | – | – | – | – | – | – | – | – | – | – | – | – | IC50 ([11]; read-out: IC50 in the SHP2 allosteric inhibition test (lower bound)): > 50 nM; IC50 ([11]; read-out: IC50 in the SHP2 allosteric inhibition test (upper bound)): ≤ 1000 nM |

— patent US20230339882A1, “SHP2 INHIBITOR AND COMPOSITION AND APPLICATION THEREOF” (Betta Pharmaceuticals Co., Ltd., priority 2020, published 2023)
